Test systems include ACHN renal; CAKI-1 renal; EKVX NSCLC; HCT-15 colon; MOLT-4 leukemia; NCI-H460 lung; OVCAR-3 ovarian; SK-MEL-2 melanoma; SK-MEL-5 melanoma.
Common to all, as to test: NCI tumour cell line growth inhibition, 48 h

The structures appear in SMILES notation.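 How tested: cells in 96-well plates exposed to compound for 48 hours at five concentrations. The concentration for 50% growth inhibition is given as GI50. Definition used: TGI = concentration required for complete inhibition of growth.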

Turning to `CC(C)(C)c1cc2c(OP(c3ccccc3)c3ccccc3)c(c1)Cc1cc(C(C)(C)C)cc(c1OP(c1ccccc1)c1ccccc1)Cc1cc(C(C)(C)C)cc(c1OP(c1ccccc1)c1ccccc1)Cc1cc(C(C)(C)C)cc(c1OP(c1ccccc1)c1ccccc1)C2`, the TGI with ACHN renal is greater than 5 µM; in the test on CAKI-1 renal, greater than 5 µM; with EKVX NSCLC it was greater than 50 µM; with HCT-15 colon it was greater than 50 µM; in the test with MOLT-4 leukemia it was greater than 5 µM; in the test with NCI-H460 lung, greater than 50 µM. Further, the TGI with OVCAR-3 ovarian, in the test with SK-MEL-2 melanoma and with SK-MEL-5 melanoma was greater than 50 µM each time. Moreover, the GI50 in the test on EKVX NSCLC, in the test with HCT-15 colon, with NCI-H460 lung, in the test with OVCAR-3 ovarian, in the test with SK-MEL-2 melanoma and with SK-MEL-5 melanoma was greater than 50 µM throughout.
Consider `COc1ccc2c3c([nH]c2c1[N+](=O)[O-])C(C)N(C(=O)/C=C/c1ccccc1)CC3` (configuration not stated), for which the TGI with ACHN renal, in the test with CAKI-1 renal, with EKVX NSCLC, with HCT-15 colon, with MOLT-4 leukemia and in the test on NCI-H460 lung was greater than 100 µM throughout. The TGI in the test on OVCAR-3 ovarian and in the test with SK-MEL-2 melanoma was greater than 100 µM each time.
Turning to `[O-]c1c(-c2ccccc2)[se]c(-c2ccccc2)[n+]1-c1ccccc1`, the TGI amounted to 34.1 µM with CAKI-1 renal; 35.4 µM with EKVX NSCLC; 31.2 µM in the test with HCT-15 colon; 92.9 µM in the test with MOLT-4 leukemia; 38.7 µM in the test with NCI-H460 lung; 21.9 µM with OVCAR-3 ovarian. Moreover, the TGI with SK-MEL-2 melanoma was 19.8 µM; with SK-MEL-5 melanoma it was 26.5 µM.
As to `C=CC1(C)/C(=N\O)C(C)(CC)C(=O)N1O` (configuration not stated), the TGI in the test on ACHN renal, in the test with CAKI-1 renal, in the test with EKVX NSCLC, with HCT-15 colon, in the test with MOLT-4 leukemia and in the test on NCI-H460 lung was greater than 100 µM each time. For the same compound, the TGI in the test on OVCAR-3 ovarian, with SK-MEL-2 melanoma and with SK-MEL-5 melanoma was greater than 100 µM throughout.
Take `O=S(O)CCCCSSCCCCS(=O)(O)=S`: the TGI with ACHN renal is greater than 100 µM; with CAKI-1 renal, greater than 100 µM; with EKVX NSCLC, 88.6 µM; with HCT-15 colon, greater than 100 µM; with MOLT-4 leukemia it was greater than 100 µM; with NCI-H460 lung it was greater than 100 µM. Further, the TGI in the test with OVCAR-3 ovarian was greater than 100 µM; in the test with SK-MEL-2 melanoma, greater than 100 µM; in the test on SK-MEL-5 melanoma it was 30.8 µM.
Take `COc1cccc(C(=O)O)c1Cc1cccc2ccccc12`: the TGI in the test with ACHN renal, in the test on CAKI-1 renal, in the test with EKVX NSCLC, in the test on HCT-15 colon, in the test with MOLT-4 leukemia and with NCI-H460 lung was greater than 100 µM throughout. For the same compound, the TGI with OVCAR-3 ovarian, in the test with SK-MEL-2 melanoma and in the test with SK-MEL-5 melanoma was greater than 100 µM each time.
Regarding `NC(N)=NS(=O)(=O)c1ccc(NC(=O)c2ccc(Cl)c3c(Nc4ccc(S(=O)(=O)N=C(N)N)cc4)c4ccccc4nc23)cc1`, the TGI in the test on ACHN renal, with CAKI-1 renal, in the test on EKVX NSCLC, with HCT-15 colon, with MOLT-4 leukemia and in the test with NCI-H460 lung was greater than 100 µM in each case. Further, the TGI with OVCAR-3 ovarian and in the test with SK-MEL-2 melanoma was greater than 100 µM each time.
On to `CP(=O)(CCSc1ccccc1)c1ccccc1` (configuration not stated), for which the TGI in the test with ACHN renal, with CAKI-1 renal, in the test with EKVX NSCLC, in the test with HCT-15 colon, in the test on MOLT-4 leukemia and with NCI-H460 lung was greater than 100 µM in each case. Besides, the TGI with OVCAR-3 ovarian and in the test on SK-MEL-5 melanoma was greater than 100 µM throughout.
Turning to `CC(=O)C1C(=O)C(=O)N(c2ccc(Cl)cc2C)C1=O` (configuration not stated), the TGI in the test with ACHN renal, with EKVX NSCLC, with HCT-15 colon, in the test with MOLT-4 leukemia, in the test on NCI-H460 lung and in the test with SK-MEL-2 melanoma was greater than 100 µM each time. Also, the TGI in the test on SK-MEL-5 melanoma was greater than 100 µM.
Consider `CCOc1ccccc1N=C(NC(=O)CC)SC`, for which the GI50 in the test with ACHN renal is greater than 100 µM; in the test with CAKI-1 renal it was greater than 100 µM; with EKVX NSCLC, greater than 100 µM; in the test with HCT-15 colon, greater than 10 µM; in the test on MOLT-4 leukemia it was greater than 10 µM; with NCI-H460 lung, greater than 100 µM. For the same compound, the GI50 in the test on OVCAR-3 ovarian was greater than 100 µM; with SK-MEL-2 melanoma, greater than 10 µM. Further, the TGI with ACHN renal, with CAKI-1 renal, in the test with EKVX NSCLC, in the test with HCT-15 colon, in the test on MOLT-4 leukemia and in the test on NCI-H460 lung was greater than 100 µM each time. Further, the TGI is greater than 100 µM in the test with OVCAR-3 ovarian, greater than 100 µM with SK-MEL-2 melanoma and greater than 10 µM in the test with SK-MEL-5 melanoma.
As to `C/C(=C\c1ccccc1)C(O)S(=O)(=O)O` (configuration not stated), the TGI in the test on ACHN renal, in the test on CAKI-1 renal, with EKVX NSCLC, with HCT-15 colon, with MOLT-4 leukemia and with NCI-H460 lung was greater than 100 µM throughout. Further, the TGI in the test on OVCAR-3 ovarian, in the test on SK-MEL-2 melanoma and in the test on SK-MEL-5 melanoma was greater than 100 µM each time.
Turning to `S=C(S)NCCCn1ccnc1`, the TGI with ACHN renal, in the test with CAKI-1 renal, with EKVX NSCLC, with HCT-15 colon, with MOLT-4 leukemia and in the test on NCI-H460 lung was greater than 100 µM each time. Also, the TGI with OVCAR-3 ovarian, with SK-MEL-2 melanoma and in the test on SK-MEL-5 melanoma was greater than 100 µM throughout.
Consider `CCOC(=O)NC(=O)c1cn(-c2ccc(CCOC(=O)CCCCCCCCC(=O)OCCc3ccc(-n4cc(C(=O)NC(=O)OCC)c(=O)[nH]c4=O)cc3)cc2)c(=O)[nH]c1=O`, for which the TGI in the test on ACHN renal, with EKVX NSCLC, in the test with HCT-15 colon, with MOLT-4 leukemia, in the test on NCI-H460 lung and with OVCAR-3 ovarian was greater than 100 µM each time. For the same compound, the TGI in the test on SK-MEL-2 melanoma and in the test with SK-MEL-5 melanoma was greater than 100 µM throughout.
Consider `NC(CCc1nc(-c2ccccc2)cs1)C(=O)O` (configuration not stated), for which the TGI in the test on ACHN renal, with CAKI-1 renal, with EKVX NSCLC, with HCT-15 colon, in the test with MOLT-4 leukemia and in the test on NCI-H460 lung was greater than 100 µM each time. Moreover, the TGI with OVCAR-3 ovarian and in the test on SK-MEL-5 melanoma was greater than 100 µM in each case.

For the origin of these results see PubChem BioAssay (NCI).
